Measured values from PubChem BioAssay (NCI).
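In this assay, cells in 96-well plates receive the compound at five concentrations for 48 hours. Endpoints are linearly interpolated between the surrounding concentrations. Definition used: TGI = concentration required for complete inhibition of growth.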

Experiments:
Test in all cases: DTP human tumour cell line panel, 48 h
SR leukemia = tested on: SR leukemia
A498 renal = tested on: A498 renal
SNB-19 CNS = tested on: SNB-19 CNS
UACC-257 melanoma = tested on: UACC-257 melanoma
OVCAR-3 ovarian = tested on: OVCAR-3 ovarian
MALME-3M melanoma = tested on: MALME-3M melanoma
SK-MEL-5 melanoma = tested on: SK-MEL-5 melanoma
MDA-MB-231 breast = tested on: MDA-MB-231 breast
SN12C renal = tested on: SN12C renal
SNB-75 CNS = tested on: SNB-75 CNS

SMILES: c1coc(-c2nccc3c2[nH]c2ccccc23)c1
- TGI (SR leukemia): > 100 µM
- TGI (A498 renal): > 100 µM
- TGI (SNB-19 CNS): > 100 µM
- TGI (UACC-257 melanoma): > 100 µM
- TGI (OVCAR-3 ovarian): > 100 µM
- TGI (MALME-3M melanoma): > 100 µM
- TGI (SK-MEL-5 melanoma): > 100 µM
- TGI (MDA-MB-231 breast): > 100 µM
- TGI (SN12C renal): > 100 µM

SMILES: O=C(c1ccccc1)N1CCN(C(=S)NC2CCCCC2)C1=S
- TGI (SNB-75 CNS): 31.6 µM
- TGI (SR leukemia): 88.7 µM
- TGI (A498 renal): 43.3 µM
- TGI (UACC-257 melanoma): 38.6 µM
- TGI (OVCAR-3 ovarian): 30.7 µM
- TGI (MALME-3M melanoma): 32.1 µM
- TGI (SK-MEL-5 melanoma): 34.4 µM
- TGI (MDA-MB-231 breast): 21.1 µM
- TGI (SN12C renal): 40 µM

SMILES: O=c1ccc2ccc(CBr)cc2o1
- TGI (SNB-75 CNS): > 100 µM
- TGI (SR leukemia): 5.05 µM
- TGI (A498 renal): 29.5 µM
- TGI (SNB-19 CNS): 24.8 µM
- TGI (UACC-257 melanoma): 24 µM
- TGI (SK-MEL-5 melanoma): 8.96 µM
- TGI (MDA-MB-231 breast): 4.14 µM
- TGI (SN12C renal): 7.22 µM

SMILES: CCn1c2nc(=O)n(CCCCCCCCSC(c3ccccc3)(c3ccccc3)c3ccccc3)c(=O)c-2nc2ccccc21
- TGI (SR leukemia): > 100 µM
- TGI (A498 renal): > 100 µM
- TGI (UACC-257 melanoma): > 100 µM
- TGI (OVCAR-3 ovarian): > 100 µM
- TGI (SK-MEL-5 melanoma): 22.9 µM
- TGI (MDA-MB-231 breast): > 100 µM

SMILES: Cn1cnc(N2CCCC2)c(C#N)c1=S
- TGI (SR leukemia): > 100 µM
- TGI (A498 renal): > 100 µM
- TGI (SNB-19 CNS): > 100 µM
- TGI (UACC-257 melanoma): > 100 µM
- TGI (OVCAR-3 ovarian): > 100 µM
- TGI (MALME-3M melanoma): > 100 µM
- TGI (SK-MEL-5 melanoma): > 100 µM
- TGI (MDA-MB-231 breast): > 100 µM
- TGI (SN12C renal): > 100 µM

SMILES: CN(C)Cc1c(O)ccc2c1c1c(n2C)C(=O)c2ccccc2C1=O
- TGI (SNB-75 CNS): 51.8 µM
- TGI (SR leukemia): > 100 µM
- TGI (A498 renal): 14.7 µM
- TGI (SNB-19 CNS): > 100 µM
- TGI (UACC-257 melanoma): 23.9 µM
- TGI (OVCAR-3 ovarian): 48.4 µM
- TGI (MALME-3M melanoma): 15.5 µM
- TGI (SK-MEL-5 melanoma): 23.1 µM
- TGI (MDA-MB-231 breast): > 100 µM
- TGI (SN12C renal): > 100 µM

SMILES: Cc1c(C(=O)O)n2c(=S)[nH]nc2c2ccccc12
- TGI (SR leukemia): > 100 µM
- TGI (A498 renal): > 100 µM
- TGI (SNB-19 CNS): > 100 µM
- TGI (UACC-257 melanoma): > 100 µM
- TGI (OVCAR-3 ovarian): > 100 µM
- TGI (SK-MEL-5 melanoma): > 100 µM
- TGI (MDA-MB-231 breast): > 100 µM
- TGI (SN12C renal): > 100 µM

SMILES: CCOC(=O)/C=C/C(=O)O/C=C/[N+](=O)[O-]
- TGI (SNB-75 CNS): > 100 µM
- TGI (SR leukemia): > 100 µM
- TGI (A498 renal): > 100 µM
- TGI (UACC-257 melanoma): > 100 µM
- TGI (OVCAR-3 ovarian): > 100 µM
- TGI (SK-MEL-5 melanoma): > 100 µM
- TGI (MDA-MB-231 breast): > 100 µM
- TGI (SN12C renal): > 100 µM

SMILES: Cn1c(-c2ccc[se]2)ccc1-c1ccc(C=O)[se]1
- TGI (SNB-75 CNS): > 65.1 µM
- TGI (SR leukemia): > 100 µM
- TGI (A498 renal): 3.01 µM
- TGI (SNB-19 CNS): > 100 µM
- TGI (UACC-257 melanoma): 3.5 µM
- TGI (OVCAR-3 ovarian): 5.71 µM
- TGI (SK-MEL-5 melanoma): > 100 µM
- TGI (MDA-MB-231 breast): > 100 µM
- TGI (SN12C renal): > 67.9 µM

SMILES: CCOP(=O)(CCCC(O)CNc1nc(N)nc(Cl)c1N=Nc1ccc(Cl)cc1)OCC (stereo unspecified)
- TGI (SNB-75 CNS): 11.1 µM
- TGI (SR leukemia): 6.82 µM
- TGI (A498 renal): 20.7 µM
- TGI (SNB-19 CNS): 22.8 µM
- TGI (UACC-257 melanoma): 18.1 µM
- TGI (OVCAR-3 ovarian): 18.4 µM
- TGI (MALME-3M melanoma): 20.9 µM
- TGI (SK-MEL-5 melanoma): 15.5 µM
- TGI (MDA-MB-231 breast): 8.6 µM
- TGI (SN12C renal): 18.2 µM

SMILES: CC(C)C(Nc1ncnc2nc[nH]c12)C(=O)O (stereo unspecified)
- TGI (SNB-75 CNS): > 100 µM
- TGI (SR leukemia): > 100 µM
- TGI (A498 renal): > 100 µM
- TGI (SNB-19 CNS): > 100 µM
- TGI (UACC-257 melanoma): > 100 µM
- TGI (OVCAR-3 ovarian): > 100 µM
- TGI (MALME-3M melanoma): > 100 µM
- TGI (SK-MEL-5 melanoma): > 100 µM
- TGI (MDA-MB-231 breast): > 100 µM
- TGI (SN12C renal): > 100 µM

SMILES: C/C=C1/CN2CCC34c5ccccc5N(C)C23C2CC1C4(C(=O)OC)C(OC(C)=O)O2 (stereo unspecified)
- TGI (SNB-75 CNS): > 100 µM
- TGI (SR leukemia): > 100 µM
- TGI (A498 renal): > 100 µM
- TGI (SNB-19 CNS): > 100 µM
- TGI (UACC-257 melanoma): > 100 µM
- TGI (OVCAR-3 ovarian): > 100 µM
- TGI (SK-MEL-5 melanoma): > 100 µM
- TGI (MDA-MB-231 breast): > 100 µM
- TGI (SN12C renal): > 100 µM

SMILES: COC1=C[C@]2(CCC(=O)O2)[C@@H]2Cc3ccccc3[C@H](O)[C@@H]2C1=O
- TGI (SR leukemia): 41.4 µM
- TGI (A498 renal): > 100 µM
- TGI (SNB-19 CNS): > 100 µM
- TGI (UACC-257 melanoma): 62 µM
- TGI (OVCAR-3 ovarian): > 100 µM
- TGI (MALME-3M melanoma): 50.2 µM
- TGI (SK-MEL-5 melanoma): 33.7 µM
- TGI (MDA-MB-231 breast): > 100 µM
- TGI (SN12C renal): > 100 µM

SMILES: C[C@@]1(CCCCCCCCCCc2ccccc2)C[C@@]2(C)OC(=O)C[C@H]2OO1
- TGI (SNB-75 CNS): 6.79 µM
- TGI (SR leukemia): 2.97 µM
- TGI (A498 renal): 40.8 µM
- TGI (SNB-19 CNS): 5.24 µM
- TGI (UACC-257 melanoma): 4.55 µM
- TGI (OVCAR-3 ovarian): 34.6 µM
- TGI (MALME-3M melanoma): 3 µM
- TGI (SK-MEL-5 melanoma): 2.26 µM
- TGI (MDA-MB-231 breast): 36.4 µM
- TGI (SN12C renal): 10.4 µM

SMILES: Cc1cc2cc3cc(C)c(N)cc3nc2cc1N
- TGI (SNB-75 CNS): 6.9 µM
- TGI (SR leukemia): 1.44 µM
- TGI (A498 renal): 1.89 µM
- TGI (SNB-19 CNS): 3.29 µM
- TGI (UACC-257 melanoma): 8.57 µM
- TGI (OVCAR-3 ovarian): 1.85 µM
- TGI (MALME-3M melanoma): 2.72 µM
- TGI (SK-MEL-5 melanoma): 14.6 µM
- TGI (MDA-MB-231 breast): 1.27 µM
- TGI (SN12C renal): 1.63 µM

SMILES: O=c1c2c3c(sc2nc2n1N=CN(c1ccccc1)C2)CCCC3
- TGI (SNB-75 CNS): > 100 µM
- TGI (SR leukemia): > 100 µM
- TGI (A498 renal): > 100 µM
- TGI (SNB-19 CNS): > 100 µM
- TGI (UACC-257 melanoma): > 100 µM
- TGI (OVCAR-3 ovarian): > 100 µM
- TGI (MALME-3M melanoma): > 100 µM
- TGI (SK-MEL-5 melanoma): > 100 µM
- TGI (MDA-MB-231 breast): > 100 µM
- TGI (SN12C renal): > 100 µM

SMILES: CC(=O)OCC1OC(N2C(=O)NC(=O)C3C=C4CCCCC4=CC32)CC1OC(C)=O (stereo unspecified)
- TGI (SNB-75 CNS): > 100 µM
- TGI (SR leukemia): > 100 µM
- TGI (A498 renal): > 100 µM
- TGI (SNB-19 CNS): > 100 µM
- TGI (UACC-257 melanoma): > 100 µM
- TGI (OVCAR-3 ovarian): > 100 µM
- TGI (MALME-3M melanoma): > 100 µM
- TGI (MDA-MB-231 breast): > 100 µM
- TGI (SN12C renal): > 100 µM

SMILES: COC(=O)Nc1nc2ccc(S(=O)(=O)Nc3ccccn3)cc2[nH]1
- TGI (SNB-75 CNS): 71.1 µM
- TGI (SR leukemia): 64.1 µM
- TGI (A498 renal): > 100 µM
- TGI (SNB-19 CNS): > 100 µM
- TGI (UACC-257 melanoma): 93.5 µM
- TGI (OVCAR-3 ovarian): > 100 µM
- TGI (MALME-3M melanoma): > 100 µM
- TGI (SK-MEL-5 melanoma): > 100 µM
- TGI (MDA-MB-231 breast): > 100 µM
- TGI (SN12C renal): > 100 µM

SMILES: COc1ccccc1NC(=S)N=Nc1c(O)[nH]c2ccccc12
- TGI (SNB-75 CNS): > 100 µM
- TGI (SR leukemia): > 100 µM
- TGI (A498 renal): > 100 µM
- TGI (SNB-19 CNS): > 100 µM
- TGI (UACC-257 melanoma): > 100 µM
- TGI (OVCAR-3 ovarian): > 100 µM
- TGI (MALME-3M melanoma): > 100 µM
- TGI (SK-MEL-5 melanoma): > 100 µM
- TGI (MDA-MB-231 breast): > 100 µM
- TGI (SN12C renal): > 100 µM

SMILES: Cc1nnc(N)nc1/C=C\c1ccc(Cl)cc1Cl
- TGI (SR leukemia): > 100 µM
- TGI (A498 renal): > 100 µM
- TGI (SNB-19 CNS): > 100 µM
- TGI (UACC-257 melanoma): > 100 µM
- TGI (MALME-3M melanoma): 59.3 µM
- TGI (SK-MEL-5 melanoma): 81.5 µM
- TGI (MDA-MB-231 breast): > 100 µM
- TGI (SN12C renal): > 100 µM

SMILES: O=C1c2cc(I)ccc2N2CCN=C2N1Cc1ccccc1
- TGI (SNB-75 CNS): 39.7 µM
- TGI (SR leukemia): > 100 µM
- TGI (A498 renal): 94.1 µM
- TGI (SNB-19 CNS): > 100 µM
- TGI (UACC-257 melanoma): > 100 µM
- TGI (OVCAR-3 ovarian): > 100 µM
- TGI (MALME-3M melanoma): > 100 µM
- TGI (SK-MEL-5 melanoma): > 100 µM
- TGI (MDA-MB-231 breast): > 100 µM
- TGI (SN12C renal): > 100 µM

SMILES: CCC(=O)Nc1cccc(N=Cc2ccc(OC(=O)/C=C\c3ccccc3)cc2)c1
- TGI (SNB-75 CNS): > 75 µM
- TGI (SR leukemia): > 75 µM
- TGI (A498 renal): > 75 µM
- TGI (SNB-19 CNS): > 75 µM
- TGI (UACC-257 melanoma): > 75 µM
- TGI (OVCAR-3 ovarian): > 75 µM
- TGI (MALME-3M melanoma): > 75 µM
- TGI (SK-MEL-5 melanoma): > 75 µM
- TGI (MDA-MB-231 breast): > 75 µM
- TGI (SN12C renal): > 75 µM
